In patent publication US10954258B2, “STAT3 dimerization inhibitors” (H. LEE MOFFITT CANCER CENTER AND RESEARCH INSTITUTE, INC., priority 2012, dated 2021):
Blank lines part the entries; values can stand above or below the compound they belong to. [ ]: non-standard residue; d: D form. pY = N[C@@H](Cc1ccc(OP(=O)(O)O)cc1)C(=O)O

What was measured:
[1] = target: binding of FLAG-STAT3 to HA-STAT3 (Mus musculus, UniProt P42227); test: co-immunoprecipitation of FLAG-STAT3 with HA-STAT3 in HEK293 cells; format: cell-based, human; details: HEK293 cells co-expressing FLAG- and HA-STAT3; treated 4 h
Procedure: HEK-293/FLAG-STAT3/HA-STAT3 cells were treated for 4 h with vehicle, S3I-1757, S3I-1756, Ac-G{pTYR}LPQTV-[…]-NH2 (SEQ ID NO:3) or Ac-GYLPQTV-[…]-NH2 (SEQ ID NO:4) and then lysed in 20 mM Tris-HCl (pH 7.4), 5 mM EDTA, 10 mM Na4P2O7, 100 mM NaF, 2 mM Na3VO4, 1% NP-40.1 mM PMSF and 10 mg/ml aprotinin. For EGF stimulation group, HEK-293/FLAG-STAT3/HASTAT3 cells were treated by 100 ng/ml EGF for 30 minutes before making cell lysate. Protein A or G agarose (EMD Millipore, Billerica, Mass., USA) was washed twice with PBS and restore to 50% slurry with PBS. 500 μg of lysate were pre-cleared by mixture of protein A and protein G-agarose for 1 h at 4° C. and then remove protein A and G-agarose by centrifuge at 1300 rpm for 3 minutes. And then 500 μg of lysate was immunoprecipitated with 50 ng of HA antibody overnight at 4° C. on shaker and then capture the immunocomplex by adding 100 μl Protein A and G agarose/sepharose bead slurry for 1 hour at 4° C. Samples were washed five times with lysis buffer and then boiled in 5×SDS-PAGE sample buffer and run on SDS-PAGE gel. Protein was transferred to nitrocellulose membrane and then blotted as described above for HA, FLAG, pSTAT3, EGFR, and STAT3.
However, the FP assay only measured the ability of S3I-1757 to displace the 7 amino acid fluorescein-labelled GpYLPQTV phosphotyrosine peptide from the SH2 domain of STAT3 protein in vitro. Therefore, it was determined if the intracellular reciprocal binding of 2 full-length STAT3 proteins is inhibited. To this end, an assay was developed to measure directly STAT3-STAT3 dimerization in intact cells by cloning HA-tagged STAT3 and FLAG-tagged STAT3, generating HEK293 cells that stably co-express HA-STAT3 and FLAG-STAT3 and using these cells for coimmunoprecipitation and co-localization. […] This assay was validated by treating the FLAG-STAT3/HA-STAT3 HEK293 cells with tyrosine phosphorylated or nonphosphorylated GYLPQTV peptide fused to a membrane-translocating sequence (MTS) to allow cell uptake. […]

[2] = test system: human breast and liver cancer xenografts; details: human breast and liver cancer xenografts in mouse models; cited from earlier work
[3] = test system: STAT3-DNA binding activity in MDA-MB-468 and A-549 cells; test: STAT3-DNA binding filter plate assay on nuclear extracts; format: cell-based, human; details: 1, 2 or 4 hours
Procedure: Nuclear extract preparation was carried out as described in Yu, et al., Science 1995; 269(5220):81-83. The STAT3-DNA binding filter plate assay was performed following the manual of the filter plate assay kit (Signosis, Sunnyvale, Calif.), as described for NFkB (Ying, et al., Blood 2011; 117(4):1301-1307). The TF Binding buffer was mixed with the STAT3 probe (biotin labeled STAT3 DNA binding sequence) and nuclear extract and incubated at 16° C. for 30 minutes to form the STAT3-DNA complex. The STAT3-DNA complex was then separated from free probe by using a filter plate. After several steps of binding and washing, bound STAT3 probe is retained on the filter in the corresponding well of Filer Plate and the free DNA probe is removed. The bound pre-labeled STAT3 probe was then eluted from the filter plate by centrifuge with elution buffer. Eluted probes were then hybridized into 96-well Hybridization Plate for quantitative analysis. The captured STAT3 probe was further detected by conjugation with streptavidin-HRP. The chemiluminescence of each well was detected by 2104 EnVisionR Multilabel Reader of PerkinElmer (Pekin Elmer, Waltham, Mass., USA) within 5 minutes after mixture with substrates. […]

[4] = test system: P-STAT3 in the nucleus of MDA-MB-468 cells; test: P-STAT3 nuclear accumulation by immunofluorescence; format: cell-based, human; details: 18 hours, various concentrations

Chain of binding of FLAG-STAT3 to HA-STAT3 (P42227 whole entry): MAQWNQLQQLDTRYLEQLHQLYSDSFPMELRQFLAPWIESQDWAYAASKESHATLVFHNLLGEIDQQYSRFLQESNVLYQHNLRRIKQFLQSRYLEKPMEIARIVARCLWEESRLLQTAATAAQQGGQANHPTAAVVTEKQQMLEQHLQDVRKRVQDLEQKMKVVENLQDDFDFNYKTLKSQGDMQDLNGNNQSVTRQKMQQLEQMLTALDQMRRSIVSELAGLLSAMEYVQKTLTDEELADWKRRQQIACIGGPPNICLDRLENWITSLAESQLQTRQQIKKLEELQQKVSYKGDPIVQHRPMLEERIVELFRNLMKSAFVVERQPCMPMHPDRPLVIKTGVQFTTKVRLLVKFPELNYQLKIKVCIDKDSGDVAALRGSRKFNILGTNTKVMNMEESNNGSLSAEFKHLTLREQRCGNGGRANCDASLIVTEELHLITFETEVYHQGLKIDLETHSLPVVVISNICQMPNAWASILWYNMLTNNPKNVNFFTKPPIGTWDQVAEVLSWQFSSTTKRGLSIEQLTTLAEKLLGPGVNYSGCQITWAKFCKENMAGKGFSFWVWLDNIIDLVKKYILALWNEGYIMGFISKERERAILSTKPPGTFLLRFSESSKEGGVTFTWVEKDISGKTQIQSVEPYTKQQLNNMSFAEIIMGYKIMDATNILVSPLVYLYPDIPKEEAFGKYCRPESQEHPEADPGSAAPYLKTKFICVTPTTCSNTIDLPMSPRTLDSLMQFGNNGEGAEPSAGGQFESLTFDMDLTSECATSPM

melting point: 188 °C (dec.)
Compound: O=C(c1ccc(Oc2ccccc2)cc1)N(Cc1ccc(C2CCCCC2)cc1)c1ccc(CP(=O)(O)O)cc1 [Compound 17c, 4-(N-(4-Cyclohexylbenzyl)-4-phenoxybenzamido)benzylphosphonic acid]

melting point: 97 °C (dec.)
Compound: O=C(c1ccc(Oc2ccccc2)cc1)N(Cc1ccc(C2CCCCC2)cc1)c1cccc(CP(=O)(O)O)c1 [Compound 17d, 3-(N-(4-Cyclohexylbenzyl)-4-phenoxybenzamido)benzylphosphonic acid]

melting point: > 250 °C
Compound: O=C(Nc1ccc(CP(=O)(O)O)cc1)c1ccc(Oc2ccccc2)cc1 [Compound 18c, 4-(4-Phenoxybenzamido)benzylphosphonic acid]

melting point: 182.7 °C (dec.)
Compound: O=C(c1ccc(Oc2ccccc2)cc1)N(Cc1ccc(C2CCCCC2)cc1)c1ccc(P(=O)(O)O)cc1 [Compound 17a, 4-(N-(4-Cyclohexylbenzyl)-4-phenoxybenzamido)phenylphosphonic acid]

The next lines start with the compound.

Compound: Ac-G{pTYR}LPQTV-AAVLLPVLLAAP-NH2 (Ac-G[pY]LPQTVAAVLLPVLLAAP-NH2; SMILES CC(=O)NCC(=O)N[C@@H](Cc1ccc(OP(=O)(O)O)cc1)C(=O)N[C@@H](CC(C)C)C(=O)N1CCC[C@H]1C(=O)N[C@@H](CCC(N)=O)C(=O)N[C@H](C(=O)N[C@H](C(=O)N[C@@H](C)C(=O)N[C@@H](C)C(=O)N[C@H](C(=O)N[C@@H](CC(C)C)C(=O)N[C@@H](CC(C)C)C(=O)N1CCC[C@H]1C(=O)N[C@H](C(=O)N[C@@H](CC(C)C)C(=O)N[C@@H](CC(C)C)C(=O)N[C@@H](C)C(=O)N[C@@H](C)C(=O)N1CCC[C@H]1C(N)=O)C(C)C)C(C)C)C(C)C)[C@@H](C)O) [P-Pep, reference compound]
binding of FLAG-STAT3 to HA-STAT3 (co-immunoprecipitation) [1]: inhibited FLAG-STAT3 from co-immunoprecipitating with HA-STAT3

Compound: Cc1ccc(S(=O)(=O)OCC(=O)Nc2ccc(C(=O)O)c(O)c2)cc1 [Compound S3I-201]
antitumor effects in xenografts [2]: exert antitumor effects against human breast and liver cancer xenografts in mouse models

Compound: COc1ccc(CN(C(=O)c2ccc(Oc3ccccc3)cc2)c2ccc(O)c(C(=O)O)c2)cc1 [Compound 20b, 2-Hydroxy-5-(N-(4-methoxybenzyl)-4-phenoxybenzamido)benzoic acid]
activated STAT3 in nuclear extracts capable of binding the STAT3 DNA binding probe [3]: did not decrease the amount of STAT3 capable of binding DNA | P-STAT3 nuclear accumulation [4]: little effect with concentrations as high as 200 μM | binding of FLAG-STAT3 to HA-STAT3 (co-immunoprecipitation) [1]: did not inhibit this binding with concentrations as high as 200 μM
